Key:
Type in all cases: physicochemical
[1] = Levothyroxine release from capsule with 3 nm nanochannel membrane into sink solution; details: powder, 2 separate experiments (019, 040)
Description: The implantable capsule comprising one or more nanochannel membranes were fabricated according to US 2010/0152699 and PCT/US2009/064376. The nanochannel membranes present nanochannels ranging in sizes between 3 and 50 nm. The nanochannel membranes (FIG. 2A) were produced in 29 configurations presenting different constant rates of delivery. Custom diffusion devices (FIG. 2B) were utilized for measuring the amount of drug released from nanochannel membrane devices using UV-spectroscopy, as described in Grattoni et al., Lab on a Chip 10:3074-3083 (2010) and Grattoni et al., Anal. Chem. 83:3096-3103 (2011). A linear standard curve relating UV absorbance and concentration of diffused substance was obtained at a wavelength of 250 nm and used for the release test of testosterone. A linear standard curve relating UV absorbance and concentration of diffused substance was obtained at a wavelength of 240 nm and used for the release test of levothyroxine. […]
PEEK capsules were loaded with 852 and 875 μL of Millipore water and 17.1 mg of powder. […] For the release measurement, a UV-Vis absorbance versus concentration standard curve was prepared. The absorbance was measured at 240 nm. The sampling method consisted of removing 1.5 mL of the sink solution, measuring the absorbance, and returning the sample to the bottle. […]

[2] = Preliminary release of testosterone from solid pellets through 3 nm nanochannel membrane (UV absorbance)
Experimental: In a preliminary experiment, the nanochannel implant was loaded with degradable testosterone pellets immersed in DI water. The amount of DI water inserted in the capsule was approximately 700 μL.

[3] = First long-term testosterone release experiment, capsule with 3 nm membrane into sink solution; details: pellet formulation (Testopel), 3 nm nanochannel membrane, 37° C.
Experimental: In the first long-term testosterone release experiment, two testosterone formulations, powder and pellet (Testopel), were used. The release experiment was performed from a capsule into a bottle containing the recipient sink solution. A 3 nm membrane was used for each testosterone formulation and assembled within the capsule. Each nanochannel presented a width of 5 μm and a length of 3 μm. The nanochannel membrane was fabricated by NanoMedical Systems, Inc., Austin Tex. by using the fabrication methods as described in PCT/US2009/064376. In general, the nanochannel membrane was fabricated with microfabrication techniques by employing a sacrificial layer technique, to obtain precise nanochannels parallel to the membrane surface and connected to the membrane inlet and outlet by means of sets of microchannels.
The total number of nanochannel per membrane is equal to 118496. Testosterone powder (21.2 mg) was weighted into the titanium capsule, which was filled with 791 μL of Millipore water. […] For the release measurement of both testosterone conformations, a UV-Vis absorbance versus concentration standard curve was prepared. The testosterone solutions were sampled every other day and the UV absorbance was measured at a wavelength of 250 nm. The sampling method consisted of removing 1.5 mL of the sink solution, measuring the absorbance, and returning the sample to the bottle. […]

[4] = Second long-term testosterone release experiment, capsule with 40 nm membrane into sink solution; details: pellet formulation (Testopel), 40 nm nanochannel membrane
Description: The second long-term testosterone release experiment was run with the same setup and measurement method. In this case, 40 nm membranes with 8 μm wide and 1 μm long nanochannels were used for both testosterone formulations. The nanochannel membrane was fabricated by NanoMedical Systems, Inc., Austin Tex. by using the fabrication methods as described in PCT/US2009/064376. In general, the nanochannel membrane was fabricated with microfabrication techniques by employing a sacrificial layer technique, to obtain precise nanochannels parallel to the membrane surface and connected to the membrane inlet and outlet by means of sets of microchannels.
Testosterone powder and pellet (26 and 24.7 mg, respectively) were weighted into PEEK capsules. Both capsules were filled with 900 μL and dropped into 90 mL of Millipore water. The sampling measurement was performed every other day with the same method described above.

Compound | duration of continuous and constant release of levothyroxine [1] [days] | approximate daily release rate of levothyroxine ([1]; 37° C.) [µg/day] | duration of constant release of testosterone ([2]; solid pellets) [days] | release rate of testosterone ([2]; solid pellets (24 mg testosterone) in DI water) [µg/day] | duration of constant (linear) delivery of testosterone [3] | duration of constant (linear) delivery of testosterone [4]
N[C@@H](Cc1cc(I)c(Oc2cc(I)c(O)c(I)c2)c(I)c1)C(=O)O.O.O.O.O.O.[Na] [levothyroxine, L-thyroxine sodium pentahydrate] | 17 | ~500 |  |  |  | 
C[C@]12CC[C@H]3[C@@H](CCC4=CC(=O)CC[C@@]43C)[C@@H]1CC[C@@H]2O [testosterone] |  |  | 13 | 5 | over 180 days | over 160 days

— patent US20150032088A1, “SUSTAINED DRUG DELIVERY FROM SOLID STATE COMPOSITIONS WITH NANOCHANNEL MEMBRANES” (priority 2012, published 2015)
